Test results from publication PMC10184116, “Liposomal Permeation Assay for Droplet-Scale Pharmacokinetic Screening” (Journal of Medicinal Chemistry, 2023).
Starred links: 1 amine or outer side, 2 acyl side, 3 side chain; linkers in the order of their positions; H or OH if unused. Positions of bridges follow the written chain, without caps; N, C: chain ends. Non-standard residues stand in square brackets, D forms with d. Residues, ends and D or L forms follow the SMILES beside them. oXylylene = c1ccc(C[*:2])c(C[*:1])c1; Pra = C#CC[C@H](N)C(=O)O

Columns and labels:
Type in all cases: in vitro ADME
[1] = Parallel artificial membrane permeability assay (PAMPA), egg lecithin in dodecane; settings: for Permeability class of control alkynes: control alkynes' permeabilities measured previously (ref 38) or via PAMPA (SI Table S1)
Experimental: A modified PAMPA was used for compound permeability measurements and was performed by Pharmaron. Briefly, alkyne stock solution (1 mM in DMSO) was diluted (50 μM final in PBS, pH 7.4). The lipid solution (1.8% w/v egg lecithin in dodecane, 5 μL spotting volume) was added to each acceptor well of the multiscreen-IP filter plate. PBS (300 μL) was added to all wells of the acceptor plate, and diluted alkyne stock (300 μL) was added to the wells of the donor plate in triplicate. The plate was assembled and incubated (16 h, 37 °C). An aliquot of donor well sample (2.5 μL) was diluted in PBS (47.5 μL), and an aliquot of the acceptor well (50 μL) was transferred to a 96-well analysis plate. Internal standard (100 nM alprazolam, 200 nM caffeine, 200 nM diclofenac in 100% MeOH) was added to all samples. Samples were vortexed and centrifuged (20 min, 3220g), then analyzed by LC-MS/MS.
The effective permeability (Pe) was calculated as [drawing 1] 1 [drawing 2] 2 where VD is the donor compartment volume (0.3 mL), VA is the acceptor compartment volume (0.3 mL), A is the filter area (0.24 cm^2), and t is the time (16 h).

[2] = Microplate fluorogenic CuAAC liposomal permeation assay (CF-N3-loaded SUVs); settings: for Permeation in liposomal assay: reaction with liposomal CF-N3 (in words): real-time fluorogenic CuAAC
Experimental: DOPC or DOPG (10 mg/mL, 500 μL) were pipetted into a scintillation vial (20 mL), or DOPC (10 mg/mL, 400 μL) and POPC (10 mg/mL, 100 μL) were pipetted into a scintillation vial (20 mL). Samples were dried under argon then evaporatively dried in a vacuum desiccator (16 h). Degassed PBS buffer was combined with CF-N3 probe (1, 4, or 20 μM final) and ascorbic acid (AA, 10 mM). Lipid film was resuspended using degassed probe/AA/PBS buffer solution (1 mL), and the vial was incubated on a hot plate (15 min, 37 °C) with gentle vortexing (every 5 min). Lipid suspension was sonicated (1 min, Branson 3510 DTH ultrasonic cleaner) followed by rest (1 min), repeating 9 additional times. Liposomes were generated by extrusion (11 passages, 100 nm polycarbonate membrane, Mini-Extruder, Avanti Polar Lipids). Liposome solution was loaded into dialysis cassettes (10K MWCO, 3 mL Slide-A-Lyzer) and incubated in PBS buffer (1 L, 16 h, 4 °C). Liposome size distributions and stability were analyzed by dynamic light scattering (DLS, Zetasizer Nano ZS, Malvern Panalytical, United Kingdom).
The same protocol was followed to produce and characterize liposomes with other lipid compositions. DOPC (10 mg/mL, 400 μL), POPC (10 mg/mL, 100 μL), and cholesterol (5 mg/mL, 50/100 μL for 10%/20% mole of cholesterol, respectively) were combined, dried, and rehydrated with probe solution in scintillation vials. Brain polar lipid extract (25 mg/mL, 200 μL) or E. coli polar lipid extract (25 mg/mL, 200 μL) were dried and rehydrated with probe solution in scintillation vials.
CuSO4 (4 mg) was dissolved in DI H2O (500 μL, 50 mM), L-ascorbic acid (8.8 mg) was dissolved in PBS (500 μL, 100 mM), TBTA (2.7 mg) was dissolved in DMSO (509 μL, 10 mM), and mPEG17/mPEG8/mPEG4/PEG4s/propargyl amine/Cyc1–4 stock solutions (50 mM, with the purity > 95% by HPLC analysis) were prepared in DMSO, and CF-N3 was dissolved in DMSO (2 mM). Fluorogenic CuAAC reaction premixture was prepared by combining CuSO4 (10 μL) and TBTA (8 μL) in PBS (982 μL). Alkyne analytes were diluted (0.1 mM in CuAAC reaction premixture +2% DMSO). Free probe solution was prepared with CF-N3 (4 μM) and L-ascorbic acid (10 mM) in PBS buffer. Alkyne analyte in CuAAC premixture (5 μL) or CuAAC premixture +2% DMSO (5 μL) blank sample was combined with liposome (5 μL) or free probe solution (5 μL) in microtiter plate wells (384-well, Greiner, Thermo Scientific). Transient assay fluorescence (λex/λem = 488/530 nm) was detected using a multimode plate reader (CLARIOstar, BMG). Fluorescence fold gain was calculated by dividing the sample fluorescence by blank fluorescence. Initial velocities (V0) were obtained by linear regression analysis of the fluorescence fold gain after the initial lag period.
Assays were assembles as described above, combining liposomal probe (5 μL; 4 μ M CF-N3, 10 mM ascorbic acid, E. coli lipid SUV) with alkyne sample (5 μL) but with varying concentrations of mPEG4, mPEG8, mPEG17, and PEG4s (0.0001/0.001/0.005/0.01/0.05/0.1/0.5/1/5 mM) or Cyc1–4 (0.0001/0.001/0.005/0.01/0.05/0.1/0.5 mM). Broken liposomal V0 was obtained by combining liposomal probe (5 μL) with Triton X-100 solution (0.42 μL, 10% w/v), then adding the highest concentration sample for each alkyne (5 μL; 0.5 mM Cyc1–4 or 5 mM PEG samples). Transient assay fluorescence (λex/λem = 488/530 nm) was detected using a multimode plate reader (CLARIOstar). Each [alkyne] V0 was divided by the corresponding broken liposome maximum [alkyne] V0,broken. These normalized data were fit to a sigmoid to determine the [alkyne] at which V0/V0,broken was 50% maximum (PC50).

[3] = Microfluidic droplet-scale liposomal permeation assay of photocleaved control beads; settings: photocleaved from control beads on-chip by UV, E. coli polar lipid SUVs, 9% dextran
Experimental: Microfluidic droplet-based screening was performed in a UV-free room as previously described.[37],[47] Briefly, perfluorous oil phase (Novec 7500) with stabilizer (4% Pico-Surf) was loaded into a syringe (1 mL, BD Tuberculin, BD Medical, Franklin Lakes, NJ) fitted with blunt-end needle (30 gauge QuantX, Fisnar, Germantown, WI) and connected to the microfluidic device OIL1 inlet via Tygon microbore tubing (0.01” I.D. × 0.03” O.D. × I.D., United States Plastic Corp.). Aqueous inputs (AQ1 and AQ2, see below) were loaded into the syringes and connected to AQ inlets of the microfluidic device. Novec 7500 was loaded into syringes (10 mL) and similarly connected to the device via Tygon microbore tubing as spacing oil (OIL2) and flow focusing oil (OIL3). The incubation channel was primed with Novec 7500 by filling from the OIL2 and OIL3 inputs before initiating flows from OIL1 and AQ inlets. OIL and AQ flows were driven by syringe pumps (Legato 101, KD Scientific, Holliston, MA): AQ1 (400 nL/min) AQ2 (400 nL/min), OIL1 (500 nL/min), OIL2 (16 μ L/min), and OIL3 (6 μL/min). […]
Fluorescence data were acquired using a custom confocal laser-induced fluorescence detection system. Droplets were detected based on internal standard (cTMR) signal in PMT 2 as previously described.[36] CF-N3 probe fluorescence was detected in PMT 1. […] Once a droplet was detected, the average PMT 1 signal was calculated. […]

[4] = multiple SUV lipid formulations

| SMILES | Permeability class of control alkynes [1] | Permeation in liposomal permeation assay (in words) [2, 4] | other results |
| --- | --- | --- | --- |
| C#CCN [PPA, propargylamine] | permeable |  | Lag before reaching steady V0 in reaction with liposomal CF-N3 ([2]; CF-N3-loaded DOPC-POPC SUVs): ~10 min; Permeation in liposomal assay: reaction with liposomal CF-N3 (in words) ([2]; CF-N3-loaded DOPC-POPC SUVs): reacted |
| C#CC[C@H](NC(=O)[C@H](Cc1c[nH]cn1)NC(=O)[C@H](Cc1c[nH]c2ccccc12)NC(=O)[C@@H](NC(=O)[C@H](Cc1c[nH]cn1)NC(=O)[C@H](Cc1ccccc1)NC(=O)[C@H]1CSCc2ccccc2CSC[C@@H](NC(=O)[C@@H](N)C(C)C)C(=O)N[C@@H](CC(N)=O)C(=O)N[C@@H](C)C(=O)N1)[C@@H](C)CC)C(N)=O [DD5o] (H-V[dC]NA[dC]FHIWH[Pra]-NH2; linker 2-5 via oXylylene) |  |  | Permeation in liposomal permeation assay (in words) ([2]; DOPG vesicles, PPA and PEG4s as controls (SI Figure S5)): permeable |
| C#CCNC(=O)C(N)C(C)C (stereo not drawn) [PPA–V, valine-N-propargylamide] |  |  | Permeation in droplet-scale liposomal permeation assay (in words) [3]: permeable |
| C#CCOCCOCCOCCOCCOCCOCCOCCOC [mPEG8, m-PEG8-propargyl] |  | readily permeated |  |
| C#CCOCCOCCOCCOC [mPEG4, m-PEG4-propargyl] |  | readily permeated |  |
| C#CCOCCOCCOCCOCCOCCOCCOCCOCCOCCOCCOCCOCCOCCOCCOCCOCCOC [mPEG17, propargyl-PEG17-methane] | impermeable | largely impermeable | Papp at 16 h, 50 μM ([1]; egg lecithin PAMPA, 50 μM, PBS pH 7.4, 16 h, 37 °C, read-out: PAMPA Pe): > 0.004 ×10⁻⁶ cm/s; Permeation in liposomal assay: reaction with liposomal CF-N3 (in words) ([2]; CF-N3-loaded DOPC-POPC SUVs): undetectable |
| C#CCOCCOCCOCCOCCS(=O)(=O)O [PEG4s, propargyl-PEG4-sulfonic acid] | impermeable |  |  |
